# ChEMBL document CHEMBL5344478, “Cytochrome bd oxidase: an emerging anti-tubercular drug target” (RSC Med Chem, 2024)
# How the values were obtained:
# [1] = test system: Mycobacterium tuberculosis; test: Antimycobacterial activity against clinical isolate multi drug resistant Mycobacterium tuberculosis H37Rv assessed as inhibition of bacterial growth; assay type: functional, organism-based
# [2] = test system: Mycobacterium tuberculosis; test: Antimycobacterial activity against Mycobacterium tuberculosis Rv1305 harbouring atpE gene; assay type: functional
# [3] = Inhibition of Mycobacterium tuberculosis H37Rv cytochrome bd oxidase with ATP synthase overexpression inverted membrane vesicles; assay type: cell membranes, Membrane vesicle
smiles,measurement,setting,value
CC(C)(C)c1ccc(CCNc2ncnc3ccsc23)cc1,IC50,[1],18.9 µM
NC(=O)NC(=O)c1nc(-c2cc3ccccc3o2)c(N)nc1N,MIC,[2],5 µM
CCc1nc2ccc(Cl)cn2c1C(=O)NCc1ccc(N2CCC(c3ccc(OC(F)(F)F)cc3)CC2)cc1 [TELACEBEC],MIC,[1],≤ 1 µM
c1ccc(CCNc2ncnc3ccccc23)cc1,IC50,[3],27 µM
